These are literature values, as cited in patent US20040024041A1, “Dermal therapeutic system containing non-steroidal antiphlogistics with selective cox-2 inhibition” (priority 2000, published 2004).

The conditions of data set [1]: patients receiving rofecoxib therapy vs patients receiving other non-steroidal anti-inflammatory drugs as comparison substance.

For the molecule `CS(=O)(=O)c1ccc(C2=C(c3ccccc3)C(=O)OC2)cc1` [rofecoxib, 3-phenyl-4-[4-methylsulfonylphenyl]-2-(5H)furanone], the “perforations, ulcers and bleeds in the upper gastrointestinal tract” value in data set [1] is “significantly fewer”. Moreover, the “percentage of patients with endoscopically detectable gastroduodenal ulcers” value (after 12 weeks of treatment, rofecoxib 25 or 50 mg/day vs placebo) is on record as “comparable percentage”. In addition, where the note is “over 12 and 24 weeks, respectively, vs ibuprofen 2 400 mg/day”, the “cumulative incidence of gastroduodenal ulcers” value is “significantly less”.
